Data from patent publication EP0680950B1, “PROPENONE DERIVATIVES” (KYOWA HAKKO KOGYO CO., LTD., priority 1993, dated 1995).

Each compound was assayed on HeLa S3 cells (assay: HeLa S3 Cell Growth Inhibition Test). Conditions: Homo sapiens, 72 hours culture with compound, neutral red staining.
Type: cell-based
Procedure: Each 0.1 ml of HeLa S3 cells which had been prepared to 3 x 10^4 cells/ml using a medium consisted of MEM medium, 10 % fetal bovine serum and 2 mM glutamine was distributed in each well of 96 well-microtiter plate. HeLa S3 was cultured at 37°C in a CO2 incubator for one night, each 0.05 ml of test compounds which had been appropriately diluted with the culture solution was added thereto and the mixture was cultured at 37°C for 72 hours in a CO2 incubator. Supernatant was removed, each 0.1 ml of the culture solution containing 0.02 % neutral red was added to the residue, the mixture was incubated at 37°C for one hour in a CO2 incubator and the cells were stained. Supernatant was removed and the residue was washed once with physiological saline. Then, the pigment was extracted with 0.001 N hydrochloric acid/30 % ethanol and the absorbance at 550 nm was measured by a microplatereader. A concentration of the test compound (IC50) at which the growth of cell is inhibited by 50 % was calculated by comparing the absorbance of non-treated cells and that of cells treated with a predetermined concentration of the test compound.
In the case of COc1cc(C(=O)/C=C/c2c[nH]c3ccccc23)cc(OC)c1OC [Compound 1, (E)-3-(Indol-3-yl)-1-(3,4,5-trimethoxyphenyl)-2-propen-1-one], the IC50 is reported as 10 nM. COc1cc(C(=O)/C=C/c2cn(C)c3ccccc23)cc(OC)c1OC [Compound 2, (E)-3-(1-Methylindol-3-yl)-1-(3,4,5-trimethoxyphenyl)-2-propen-1-one] was tested, and the IC50 was 20 nM. CCn1cc(/C=C/C(=O)c2cc(OC)c(OC)c(OC)c2)c2ccccc21 [Compound 3, (E)-3-(1-Ethylindol-3-yl)-1-(3,4,5-trimethoxyphenyl)-2-propen-1-one] showed an IC50 of 58 nM. Compound COc1cc(C(=O)/C=C/c2cn(C(C)=O)c3ccccc23)cc(OC)c1OC [Compound 6, (E)-3-(1-Acetylindol-3-yl)-1-(3,4,5-trimethoxyphenyl)-2-propen-1-one] has an IC50 of 17 nM. COc1cc(C(=O)/C=C/c2cn(C(=O)c3ccccc3)c3ccccc23)cc(OC)c1OC [Compound 8, (E)-3-(1-Benzoylindol-3-yl)-1-(3,4,5-trimethoxyphenyl)-2-propen-1-one] showed an IC50 of 26 nM. COc1cc(C(=O)/C=C/c2c(C)[nH]c3ccccc23)cc(OC)c1OC [Compound 12, (E)-3-(2-Methylindol-3-yl)-1-(3,4,5-trimethoxyphenyl)-2-propen-1-one] showed an IC50 of 260 nM. COc1cc(C(=O)/C=C/c2c(Cl)n(C)c3ccccc23)cc(OC)c1OC [Compound 13, (E)-3-(2-Chloro-1-methylindol-3-yl)-1-(3,4,5-trimethoxyphenyl)-2-propen-1-one] was tested, and the IC50 was 78 nM. Work on COc1cc(C(=O)/C=C/c2c[nH]c3cccc(C)c23)cc(OC)c1OC [Compound 15, (E)-3-(4-Methylindol-3-yl)-1-(3,4,5-trimethoxyphenyl)-2-propen-1-one] yielded an IC50 of 86 nM. In the case of COc1cc(C(=O)/C=C/c2c[nH]c3ccc(C)cc23)cc(OC)c1OC [Compound 20, (E)-3-(5-Methylindol-3-yl)-1-(3,4,5-trimethoxyphenyl)-2-propen-1-one], the IC50 is reported as 110 nM. Compound COc1cc(C(=O)/C=C/c2c[nH]c3ccc(F)cc23)cc(OC)c1OC [Compound 29, (E)-3-(5-Fluoroindol-3-yl)-1-(3,4,5-trimethoxyphenyl)-2-propen-1-one] has an IC50 of 60 nM. With COc1cc(C(=O)/C=C/c2c[nH]c3cc(C)ccc23)cc(OC)c1OC [Compound 32, (E)-3-(6-Methylindol-3-yl)-1-(3,4,5-trimethoxyphenyl)-2-propen-1-one] the IC50 was 6.3 nM. COc1cc(C(=O)/C=C/c2cn(C)c3cc(NC(C)=O)ccc23)cc(OC)c1OC [Compound 38, (E)-3-(6-Acetamido-1-methylindol-3-yl)-1-(3,4,5-trimethoxyphenyl)-2-propen-1-one] showed an IC50 of 55 nM. With COc1cc(C(=O)/C=C/c2c[nH]c3c(OC)c(OC)ccc23)cc(OC)c1OC [Compound 40, (E)-3-(6,7-Dimethoxyindol-3-yl)-1-(3,4,5-trimethoxyphenyl)-2-propen-1-one] the IC50 was 12 nM. With COc1cc(C(=O)/C=C/c2c[nH]c3c(OC)cccc23)cc(OC)c1OC [Compound 46, (E)-3-(7-Methoxyindol-3-yl)-1-(3,4,5-trimethoxyphenyl)-2-propen-1-one] the IC50 was 200 nM. COc1cc(C(=O)/C(C)=C/c2c[nH]c3ccccc23)cc(OC)c1OC [Compound 48, (E)-3-(Indol-3-yl)-2-methyl-1-(3,4,5-trimethoxyphenyl)-2-propen-1-one] showed an IC50 of 0.29 nM. CCC/C(=C\c1c[nH]c2ccccc12)C(=O)c1cc(OC)c(OC)c(OC)c1 [Compound 49, (E)-3-(Indol-3-yl)-2-propyl-1-(3,4,5-trimethoxyphenyl)-2-propen-1-one] was tested, and the IC50 was 6 nM. COc1cc(C(=O)/C=C/c2cn(C(=O)c3ccc(C)cc3)c3ccccc23)cc(OC)c1OC [Compound 50, (E)-3-[1-(4-Methylbenzoyl)indol-3-yl]-1-(3,4,5-trimethoxyphenyl)-2-propen-1-one] was tested, and the IC50 was 25 nM. COc1ccc(C(=O)n2cc(/C=C/C(=O)c3cc(OC)c(OC)c(OC)c3)c3ccccc32)cc1 [Compound 51, (E)--3-[1-(4-Methoxybenzoyl)indol-3-yl]-1-(3,4,5-trimethoxyphenyl)-2-propen-1-one] showed an IC50 of 23 nM. Compound COc1cc(C(=O)/C=C/c2cn(C(=O)c3cccc(C)c3)c3ccccc23)cc(OC)c1OC [Compound 52, (E)-3-[1-(3-Methylbenzoyl)indol-3-yl]-1-(3,4,5-trimethoxyphenyl)-2-propen-1-one] has an IC50 of 58 nM. Compound COc1cccc(C(=O)n2cc(/C=C/C(=O)c3cc(OC)c(OC)c(OC)c3)c3ccccc32)c1 [Compound 53, (E)-3-[1-(3-Methoxybenzoyl)indol-3-yl]-1-(3,4,5-trimethoxyphenyl)-2-propen-1-one] has an IC50 of 34 nM. For COc1cc(C(=O)/C=C/c2cn(C(=O)c3ccc(NC(C)=O)cc3)c3ccccc23)cc(OC)c1OC [Compound 56, (E)-3-[1-(4-Acetamidobenzoyl)indol-3-yl]-1-(3,4,5-trimethoxyphenyl)-2-propen-1-one], the IC50 was 23 nM. Compound COc1cc(C(=O)/C=C/c2cn(C(=O)c3ccc(N(C)C)cc3)c3ccccc23)cc(OC)c1OC [Compound 57, (E)-3-[1-(4-Dimethylaminobenzoyl)indol-3-yl]-1-(3,4,5-trimethoxyphenyl)-2-propen-1-one] has an IC50 of 31 nM. With COc1ccc(C(=O)n2cc(/C=C/C(=O)c3cc(OC)c(OC)c(OC)c3)c3ccccc32)cc1OC [Compound 58, (E)-3-[1-(3,4-Dimethoxybenzoyl)indol-3-yl]-1-(3,4,5-trimethoxyphenyl)-2-propen-1-one] the IC50 was 64 nM. COc1cc(C(=O)/C=C/c2cn(C(=O)c3cc(OC)c(OC)c(OC)c3)c3ccccc23)cc(OC)c1OC [Compound 59, (E)-3-[1-(3,4,5-Trimethoxybenzoyl)indol-3-yl]-1-(3,4,5-trimethoxyphenyl)-2-propen-1-one] was tested, and the IC50 was 28 nM. COc1cc(C(=O)/C=C/c2cn(C(=O)c3cccnc3)c3ccccc23)cc(OC)c1OC [Compound 60, (E)-3-(1-Nicotinoylindol-3-yl)-1-(3,4,5-trimethoxyphenyl)-2-propen-1-one] showed an IC50 of 7.7 nM. With COc1cc(C(=O)/C=C/c2cn(C(=O)c3ccncc3)c3ccccc23)cc(OC)c1OC [Compound 61, (E)-3-(1-Isonicotinoylindol-3-yl)-1-(3,4,5-trimethoxyphenyl)-2-propen-1-one] the IC50 was 9.7 nM. Compound CC/C(=C\c1c[nH]c2ccccc12)C(=O)c1cc(OC)c(OC)c(OC)c1 [Compound 62, (E)-2-Ethyl-3-(indol-3-yl)-1-(3,4,5-trimethoxyphenyl)-2-propen-1-one] has an IC50 of 4.7 nM. COc1cc(C(=O)/C(C)=C/c2c[nH]c3cc(C)ccc23)cc(OC)c1OC [Compound 63, (E)-2-Methyl-3-(6-methylindol-3-yl)-1-(3,4,5-trimethoxyphenyl)-2-propen-1-one] showed an IC50 of 0.73 nM. COc1cc(C(=O)C(=Cc2c[nH]c3ccccc23)c2ccccc2)cc(OC)c1OC [Compound 64, 3-(Indol-3-yl)-2-phenyl-1-(3,4,5-trimethoxyphenyl)-2-propen-1-one] was tested, and the IC50 was 2.3 nM. Work on CCCC/C(=C\c1c[nH]c2ccccc12)C(=O)c1cc(OC)c(OC)c(OC)c1 [Compound 65, (E)-2-Butyl-3-(indol-3-yl)-1-(3,4,5-trimethoxyphenyl)-2-propen-1-one] yielded an IC50 of 6.3 nM. CCc1ccc2c(/C=C(\C)C(=O)c3cc(OC)c(OC)c(OC)c3)c[nH]c2c1 [Compound 66, (E)-3-(6-Ethylindol-3-yl)-2-methyl-1-(3,4,5-trimethoxyphenyl)-2-propen-1-one] gave an IC50 of 2.5 nM. COc1cc(C(=O)/C=C/c2cn(C(=O)COCC(=O)O)c3ccccc23)cc(OC)c1OC [Compound 67, (E)-3-(1-Diglycolylindol-3-yl)-1-(3,4,5-trimethoxyphenyl)-2-propen-1-one] showed an IC50 of 11 nM.
